In brackets after ≈: the same amount, converted by molar mass.
Tests used:
Rat1 [1] = experiment: Inhibition of v-raf (Raf1a1) transformed RAT1 cell colony size and number in soft agar assay; format: functional; conditions: Rattus norvegicus
Rat1 [2] = experiment: Minimal cytotoxic effect (<10%) in RAT1 cell viability assay; format: functional, Rattus norvegicus
Rat1 [3] = experiment: Inhibition of v-Ha-ras (Ras2B) transformed RAT1 cell colony size and number in soft agar assay; format: functional; conditions: Rattus norvegicus
[4] = biological target: Protein farnesyltransferase (Homo sapiens, UniProt P49354+P49356); experiment: Inhibition of [3H]FPP incorporation into recombinant Ha-Ras by bovine brain farnesyltransferase; format: functional, Bos taurus
[5] = biological target: Geranylgeranyl transferase type I (Homo sapiens, UniProt P49354+P53609); experiment: Inhibition of geranylgeranyl transferase I (GGTase-I); format: protein-complex assay
NIH3T3 = experiment: Inhibition of the post-translational prenylation of Ha-Ras protein in cultured NIH3T3 cells in a protein processing assay; format: functional, cell-based; conditions: Mus musculus

| MIC (Rat1 [1]) | MIC (Rat1 [3]) | IC50 [4] | IC50 [5] | SMILES | CTE (Rat1 [2]) | IC50 (NIH3T3) |
| --- | --- | --- | --- | --- | --- | --- |
| – | – | 0.87 µM | 17 µM | CSCC[C@H](NC(=O)c1cccc(CN(Cc2cnc[nH]2)Cc2cnc[nH]2)c1)C(=O)O | – | – |
| > 10 µM | > 10 µM | – | – | CCCCN(Cc1cccc(C(=O)N[C@@H](CCSC)C(=O)OC)c1)Cc1cncn1Cc1ccc(C#N)cc1 | 25 µM | – |
| – | – | 0.012 µM | 6.2 µM | CSCC[C@H](NC(=O)c1cccc(CN(Cc2ccc(C#N)cc2)Cc2cnc[nH]2)c1)C(=O)O | – | – |

The next lines start with the molecule.

| SMILES | MIC (Rat1 [1]) | MIC (Rat1 [3]) | IC50 [4] | IC50 [5] | CTE (Rat1 [2]) | IC50 (NIH3T3) |
| --- | --- | --- | --- | --- | --- | --- |
| COC(=O)[C@H](CCSC)NC(=O)c1cccc(CNCc2cncn2Cc2ccc(C#N)cc2)c1 | > 10 µM | 10 µM (≈ 4.92 µg/mL) | – | – | 25 µM | – |
| COC(=O)[C@H](CCSC)NC(=O)c1cccc(CN(Cc2ccc(C#N)cc2)Cc2cncn2Cc2ccc(C#N)cc2)c1 | > 10 µM | ≤ 1 µM | – | – | 25 µM | ~5 µM |
| COC(=O)[C@H](CCSC)NC(=O)c1cccc(CN(Cc2ccc(C#N)cc2)Cc2c[nH]cn2)c1 | > 10 µM | 10 µM (≈ 4.92 µg/mL) | – | – | >=50 uM | – |

— ChEMBL document CHEMBL1132268, “Non-thiol 3-aminomethylbenzamide inhibitors of farnesyl-protein transferase” (Bioorg Med Chem Lett, 1999)
